Structures can show the parent of a compound that is named as a salt.
Tests used:
[1] = molecular target: T1, human M3 muscarinic receptor (Homo sapiens, UniProt P20309); experiment: Inhibitory effect on methacholine-induced calcium influx, FLIPR assay, CHO-K1 cells stably expressing the human M3 muscarinic receptor; format: cell-based; conditions: inhibition of calcium influx induced by methacholine
T1 construct: expressed in transfected cells; host or cells: CHO-K1
Procedure, shortened: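 Dye-loaded hM3 CHO-K1 cells were preincubated 180 s with compound solutions prepared at 10 two-fold concentrations (0.01–1000 nM). A 30 nM methacholine solution was then added. Fluorescence was traced for 170 s; max−min signal gave % inhibition against agonist and no-agonist controls, and IC50 came from a four-parameter logistic fit.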

[2] = molecular target: T2, human β2 adrenergic receptor (Homo sapiens, UniProt P07550); experiment: Whole-cell cAMP Flashplate assay using CHO-K1 cells stably expressing human β2 adrenergic receptor; format: cell-based; conditions: cAMP production
T2 construct: expressed in transfected cells; host or cells: CHO-K1

[3] = system: acetylcholine-induced bronchoconstriction in guinea pigs; experiment: Effects on acetylcholine-induced bronchoconstriction in guinea pigs; format: in vivo, guinea pig; conditions: Cavia porcellus; 24 hours after 25 μg/kg of the compounds were administered; read-out: percentage of bronchoconstriction suppression with respect to the acetylcholine stimulation
Protocol: These in vivo assays are used to evaluate the bronchoprotective effects based on the M3 muscarinic receptor antagonist activity and the β2 adrenergic receptor agonist activity of test compounds. Hartley male guinea pigs (Nippon SLC, Inc.) weighing about 400-500 g were used. The animals were anesthetized by inhalation of Fluothane (Takeda Pharmaceutical Company Limited) in a plastic box. The test compounds were dissolved in physiological saline containing DMSO, and administered through the nasal cavity into the trachea at a dose of 0.04-25 μg/kg and at a volume of 0.4 mL/kg. For control animals, solvent without a test compound was administered. In general, animals awake several minutes after completion of the administration. The animals were anesthetized with an intraperitoneal administration of 33% urethane/0.8% α-chloralose at a dose of 3 mL/kg. In order to intravenously administer acetylcholine or histamine, a catheter was inserted into the carotid artery. In order to measure artificial respiration and airway ventilation pressure, a cannula was inserted into the trachea. Artificial respiration was applied to the animals at a volume of 10 mL/kg and at a frequency of 60/minute, using a ventilator (Harvard Apparatus). The airway ventilation pressure was measured by the Konzett-Roessler method using a general respiratory function analysis system (M.I.P.S). Prior to administration of acetylcholine or histamine, the airway ventilation pressure was measured and baseline values were recorded. Then, physiological saline was administered through the carotid artery catheter at a volume of 0.4 mL/kg, and the airway ventilation pressure was measured. Bronchoconstrictor response was induced by administering acetylcholine (40 μg/kg, 0.4 mL/kg) or histamine (15 μg/kg, 0.4 mL/kg) through the carotid artery catheter one hour after the administration of the test compounds, and the airway ventilation pressure at the maximum contractile response was recorded. In addition, in order to evaluate duration of action of the test compounds, the above-mentioned dose of acetylcholine or histamine was administered, 1 hour, 6 hours, 12 hours, 18 hours, and 24 hours after the administration of test compounds, and the airway ventilation pressure was measured in the same way. The percentage of suppression by the test compounds with respect to the airway contractile response was calculated according to the following formula. (%) Percentage of the airway constriction suppression=(Airway ventilation pressure of test compound-dosed and acetylcholine- or histamine-dosed animals−Baseline value)/(Airway ventilation pressure of acetylcholine- or histamine-dosed animals−Baseline value)×100
The 50% inhibitory doses (ID50 values) of the test compounds were analyzed by a sigmoidal logistic model using XLfit4 (IDBS, Ltd.) for the percentage of the bronchoconstriction suppression at different doses of the test compounds.

T1 sequence (P20309 whole entry): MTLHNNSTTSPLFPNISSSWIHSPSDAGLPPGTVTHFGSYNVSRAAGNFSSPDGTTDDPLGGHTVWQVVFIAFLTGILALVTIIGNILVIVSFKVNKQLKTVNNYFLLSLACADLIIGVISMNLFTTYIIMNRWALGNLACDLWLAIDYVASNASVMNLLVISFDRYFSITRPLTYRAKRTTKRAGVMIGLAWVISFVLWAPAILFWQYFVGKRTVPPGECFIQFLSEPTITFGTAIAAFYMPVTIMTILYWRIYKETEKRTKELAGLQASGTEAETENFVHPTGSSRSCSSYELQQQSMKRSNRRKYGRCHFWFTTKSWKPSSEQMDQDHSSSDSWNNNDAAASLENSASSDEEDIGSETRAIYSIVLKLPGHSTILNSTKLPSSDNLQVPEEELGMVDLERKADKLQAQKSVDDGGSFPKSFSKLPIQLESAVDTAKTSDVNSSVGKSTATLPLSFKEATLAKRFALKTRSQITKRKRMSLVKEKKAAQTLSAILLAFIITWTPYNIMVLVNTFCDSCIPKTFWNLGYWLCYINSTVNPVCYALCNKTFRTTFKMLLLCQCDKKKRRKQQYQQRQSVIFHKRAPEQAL
T2 sequence (P07550 whole entry): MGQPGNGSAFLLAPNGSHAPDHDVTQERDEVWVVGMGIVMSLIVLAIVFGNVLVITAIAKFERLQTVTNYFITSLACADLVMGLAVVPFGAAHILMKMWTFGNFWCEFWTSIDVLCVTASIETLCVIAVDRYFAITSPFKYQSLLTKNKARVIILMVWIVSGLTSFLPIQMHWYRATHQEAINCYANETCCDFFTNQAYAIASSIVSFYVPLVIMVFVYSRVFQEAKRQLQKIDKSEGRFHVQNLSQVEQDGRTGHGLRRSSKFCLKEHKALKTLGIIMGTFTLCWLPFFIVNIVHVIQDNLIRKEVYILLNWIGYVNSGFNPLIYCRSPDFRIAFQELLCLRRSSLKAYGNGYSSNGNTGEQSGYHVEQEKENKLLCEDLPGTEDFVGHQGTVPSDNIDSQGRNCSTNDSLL

Compound | IC50 [1] | EC50 [2] | inhibition in vivo at 0.025 mg/kg [3]
COc1cc(NC(=O)CCc2ccc(-c3ccccc3)c(NC(=O)OC3CC[N+](C)(C)CC3)c2)c(Cl)cc1CNC[C@H](O)c1ccc(O)c2[nH]c(=O)ccc12 [Example 2, 4-({[5-(2-{[2-chloro-4-({[(2R)-2-hydroxy-2-(8-hydroxy-2-oxo-1,2-dihydroquinolin-5-yl)ethyl]amino}methyl)-5-methoxyphenyl]carbamoyl}ethyl)-2-phenylphenyl]carbamoyl}oxy)-1,1-dimethylpiperidin-1-ium trifluoroacetate] | 19.3 nM | 1.1 nM | ≥ 50%
COc1cc(NC(=O)CCCc2ccc(-c3ccccc3)c(NC(=O)OC3CC[N+](C)(C)CC3)c2)c(Br)cc1CNC[C@H](O)c1ccc(O)c2[nH]c(=O)ccc12 [Example 25, 4-({[5-(3-{[2-bromo-4-({[(2R)-2-hydroxy-2-(8-hydroxy-2-oxo-1,2-dihydroquinolin-5-yl)ethyl]amino}methyl)-5-methoxyphenyl]carbamoyl}propyl)-2-phenylphenyl]carbamoyl}oxy)-1,1-dimethylpiperidin-1-ium trifluoroacetate] | 19 nM | 0.4 nM | ≥ 50%
C[N+]1(C)CCC(OC(=O)Nc2cc(CCCOc3ccc(CCNC[C@H](O)c4ccc(O)c5[nH]c(=O)ccc45)cc3)ccc2-c2ccccc2)CC1 [Example 77, 4-{[(5-{3-[4-(2-{[(2R)-2-hydroxy-2-(8-hydroxy-2-oxo-1,2-dihydroquinolin-5-yl)ethyl]amino}ethyl)phenoxy]propyl}-2-phenylphenyl)carbamoyl]oxy}-1,1-dimethylpiperidin-1-ium trifluoroacetate] | 36.3 nM | 1.5 nM | ≥ 50%
C[N+]1(C)CCC(OC(=O)Nc2cc(OCCCCCCCCNC[C@H](O)c3ccc(O)c4[nH]c(=O)ccc34)ccc2-c2ccccc2)CC1 [Example 58, 4-[({5-[(8-{[(2R)-2-hydroxy-2-(8-hydroxy-2-oxo-1,2-dihydroquinolin-5-yl)ethyl]amino}octyl)oxy]-2-phenylphenyl}carbamoyl)oxy]-1,1-dimethylpiperidin-1-ium trifluoroacetate] | 46.4 nM | 0.6 nM | –
C[N+]1(C)CCC(OC(=O)Nc2cc(CCC(=O)Nc3ccc(CNC[C@H](O)c4ccc(O)c5[nH]c(=O)ccc45)cc3Cl)ccc2-c2ccccc2)CC1 [Example 9, 4-({[5-(2-{[2-chloro-({[(2R)-2-hydroxy-2-(8-hydroxy-2-oxo-1,2-dihydroquinolin-5-yl)ethyl]amino}methyl)phenyl]carbamoyl}ethyl)-2-phenylphenyl]carbamoyl}oxy)-1,1-dimethylpiperidin-1-ium trifluoroacetate] | 10.1 nM | 1.9 nM | –

The next lines start with results.

IC50 [1] | EC50 [2] | Compound | inhibition in vivo at 0.025 mg/kg [3]
9 nM | 1.7 nM | COc1cc(NC(=O)CCc2ccc(-c3ccccc3)c(NC(=O)OC3CC[N+](C)(C)CC3)c2)ccc1CNC[C@H](O)c1ccc(O)c2[nH]c(=O)ccc12 [Example 6, 4-({[5-(2-{[4-({[(2R)-2-hydroxy-2-(8-hydroxy-2-oxo-1,2-dihydroquinolin-5-yl)ethyl]amino}methyl)-3-methoxyphenyl]carbamoyl}ethyl)-2-phenylphenyl]carbamoyl}oxy)-1,1-dimethylpiperidin-1-ium trifluoroacetate] | ≥ 50%
26.4 nM | 4.6 nM | C[N+]1(C)CCC(OC(=O)Nc2cc(CCC(=O)Nc3ccc4cc(CNC[C@H](O)c5ccc(O)c6[nH]c(=O)ccc56)ccc4c3)ccc2-c2ccccc2)CC1 [Example 12, 4-({[5-(2-{[6-({[(2R)-2-hydroxy-2-(8-hydroxy-2-oxo-1,2-dihydroquinolin-5-yl)ethyl]amino}methyl)naphthalen-2-yl]carbamoyl}ethyl)-2-phenylphenyl]carbamoyl}oxy)-1,1-dimethylpiperidin-1-ium trifluoroacetate] | ≥ 50%
8.7 nM | 1.2 nM | C[N+]1(C)CCC(OC(=O)Nc2cc(CCCC(=O)Nc3ccc(CNC[C@H](O)c4ccc(O)c5[nH]c(=O)ccc45)cc3Cl)ccc2-c2ccccc2)CC1 [Example 19, 4-({[5-(3-{[2-chloro-4-({[(2R)-2-hydroxy-2-(8-hydroxy-2-oxo-1,2-dihydroquinolin-5-yl)ethyl]amino}methyl)phenyl]carbamoyl}propyl)-2-phenylphenyl]carbamoyl}oxy)-1,1-dimethylpiperidin-1-ium trifluoroacetate] | ≥ 50%
16.8 nM | 2.6 nM | COc1cc(NC(=O)CCCc2ccc(-c3ccccc3)c(NC(=O)OC3CC[N+](C)(C)CC3)c2)ccc1CNC[C@H](O)c1ccc(O)c2[nH]c(=O)ccc12 [Example 20, 4-({[5-(3-{[4-({[(2R)-2-hydroxy-2-(8-hydroxy-2-oxo-1,2-dihydroquinolin-5-yl)ethyl]amino}methyl)-3-methoxyphenyl]carbamoyl}propyl)-2-phenylphenyl]carbamoyl}oxy)-1,1-dimethylpiperidin-1-ium trifluoroacetate] | ≥ 50%
8.9 nM | 0.6 nM | COc1cc(NC(=O)CCCc2ccc(-c3ccccc3)c(NC(=O)OC3CC[N+](C)(C)CC3)c2)c(Cl)cc1CNC[C@H](O)c1ccc(O)c2[nH]c(=O)ccc12 [Example 18, 4-({[5-(3-{[2-chloro-4-({[(2R)-2-hydroxy-2-(8-hydroxy-2-oxo-1,2-dihydroquinolin-5-yl)ethyl]amino}methyl)-5-methoxyphenyl]carbamoyl}propyl)-2-phenylphenyl]carbamoyl}oxy)-1,1-dimethylpiperidin-1-ium trifluoroacetate] | ≥ 50%
64.1 nM | 0.9 nM | C[N+]1(C)[C@@H]2C[C@@H](OC(=O)Nc3ccc(CCCC(=O)Nc4ccc5cc(CNC[C@H](O)c6ccc(O)c7[nH]c(=O)ccc67)ccc5c4)cc3-c3ccccc3)C[C@H]1[C@@H]1O[C@@H]12 [Example 56, (1R,2R,4S,5S,7S)-7-({[4-(3-{[6-({[(2R)-2-hydroxy-2-(8-hydroxy-2-oxo-1,2-dihydroquinolin-5-yl)ethyl]amino}methyl)naphthalen-2-yl]carbamoyl}propyl)-2-phenylphenyl]carbamoyl}oxy)-9,9-dimethyl-3-oxa-9-azatricyclo[3.3.1.0^2,4]nonan-9-ium trifluoroacetate] | –
37.8 nM | 8.7 nM | C[N+]1(C)CCC(OC(=O)Nc2cc(CCCCOc3ccc(CNC[C@H](O)c4ccc(O)c5[nH]c(=O)ccc45)cc3)ccc2-c2ccccc2)CC1 [Example 61, 4-{[(5-{4-[4-({[(2R)-2-hydroxy-2-(8-hydroxy-2-oxo-1,2-dihydroquinolin-5-yl)ethyl]amino}methyl)phenoxy]butyl}-2-phenylphenyl)carbamoyl]oxy}-1,1-dimethylpiperidin-1-ium trifluoroacetate] | –
